The supplement of paper PMC13380429

How the values were obtained:
Conditions in all cases: 72 h
Caco-2 [1] = assay: cell viability relative to DMSO; higher = less toxic
Calu-3 [2] = assay: as above
HepG2 [3] = assay: as above
U2OS [4] = assay: as above
Vero E6 [5] = assay: as above
Caco-2 [6] = assay: relative viability EC50 (midpoint between 100% and the lowest measured viability); higher = less toxic
Calu-3 [7] = assay: as above
HepG2 [8] = assay: as above
U2OS [9] = assay: as above
Vero E6 [10] = assay: as above
Caco-2 [11] = assay: drug sensitivity score (DSS) for viability; higher = more toxic; extreme values may be limits of the assay
Calu-3 [12] = assay: as above
HepG2 [13] = assay: as above
U2OS [14] = assay: as above
Vero E6 [15] = assay: as above

Row | SMILES | cell viability (Caco-2 [1]; 1 nM) | cell viability (Caco-2 [1]; 10 nM) | cell viability (Caco-2 [1]; 100 nM) | cell viability (Caco-2 [1]; 1000 nM) | cell viability (Caco-2 [1]; 10000 nM) | cell viability (Calu-3 [2]; 1 nM) | cell viability (Calu-3 [2]; 10 nM) | cell viability (Calu-3 [2]; 100 nM) | cell viability (Calu-3 [2]; 1000 nM) | cell viability (Calu-3 [2]; 10000 nM) | cell viability (HepG2 [3]; 1 nM) | cell viability (HepG2 [3]; 10 nM) | cell viability (HepG2 [3]; 100 nM) | cell viability (HepG2 [3]; 1000 nM) | cell viability (HepG2 [3]; 10000 nM) | cell viability (U2OS [4]; 1 nM) | cell viability (U2OS [4]; 10 nM) | cell viability (U2OS [4]; 100 nM) | cell viability (U2OS [4]; 1000 nM) | cell viability (U2OS [4]; 10000 nM) | cell viability (Vero E6 [5]; 1 nM) | cell viability (Vero E6 [5]; 10 nM) | cell viability (Vero E6 [5]; 100 nM) | cell viability (Vero E6 [5]; 1000 nM) | cell viability (Vero E6 [5]; 10000 nM) | relative viability EC50 (Caco-2 [6]) | relative viability EC50 (Calu-3 [7]) | relative viability EC50 (HepG2 [8]) | relative viability EC50 (U2OS [9]) | relative viability EC50 (Vero E6 [10]) | drug sensitivity score (Caco-2 [11]) | drug sensitivity score (Calu-3 [12]) | drug sensitivity score (HepG2 [13]) | drug sensitivity score (U2OS [14]) | drug sensitivity score (Vero E6 [15])
1 | Cn1cnc2c1c(=O)[nH]c(=O)n2C [theobromine] | 99.1% | 110% | 106% | 121% | 104% | 91.3% | 90.3% | 100% | 97.4% | 98.8% | 87.6% | 79.8% | 99.3% | 95.7% | 95.6% | 92.6% | 101% | 95.7% | 97.6% | 100% | 101% | 92.7% | 103% | 98% | 103% | > 10 µM | > 10 µM | > 10 µM | > 10 µM | > 10 µM | 0 | 0 | 0 | 0 | 0
2 | Cc1ccccc1C(C(=O)NC1CCCCC1)N(C(=O)Cn1ccnc1C)c1cccc(F)c1 (stereo not given) [AGI-5198] | 98.4% | 97.5% | 87.9% | 103% | 90.6% | 93.6% | 95.7% | 85.4% | 90.3% | 87.4% | 103% | 99.3% | 112% | 88.6% | 103% | 96.6% | 103% | 102% | 106% | 93.2% | 100% | 100% | 98.9% | 99.2% | 101% | > 10 µM | > 10 µM | > 10 µM | > 10 µM | > 10 µM | 0 | 0.8 | 0 | 0 | 0
3 | CC(C)[C@H](N)C(=O)OCC(CO)OCn1cnc2c(=O)nc(N)[nH]c21 (mixture of isomers) [valganciclovir] | 94.3% | 107% | 103% | 114% | 80% | 107% | 101% | 108% | 104% | 91.8% | 97.9% | 95% | 97.3% | 95.8% | 90.5% | 90.7% | 102% | 98.2% | 104% | 108% | 99.3% | 91.8% | 103% | 97.4% | 97.4% | > 10 µM | > 10 µM | > 10 µM | > 10 µM | > 10 µM | 0.3 | 0 | 0 | 0 | 0
4 | CO[C@@]1(NC(=O)Cc2cccs2)C(=O)N2C(C(=O)O)=C(COC(N)=O)CS[C@@H]21 [cefoxitin] | 90.1% | 95.5% | 102% | 101% | 97.8% | 106% | 94.4% | 106% | 104% | 110% | 113% | 91.4% | 98.1% | 97.4% | 97.4% | 95.6% | 99% | 96.3% | 102% | 105% | 104% | 95.7% | 100% | 96.8% | 85.5% | > 10 µM | > 10 µM | > 10 µM | > 10 µM | > 10 µM | 0 | 0 | 0 | 0 | 0.5
5 | O=C(c1cccc(Br)c1)N1CCC(N2CCCC2)CC1 [UNC926] | 99.8% | 98.4% | 102% | 100% | 92.8% | 93.7% | 90.2% | 113% | 92.6% | 96.4% | 100% | 104% | 90.4% | 104% | 108% | 102% | 97.2% | 99.5% | 102% | 101% | 90.9% | 101% | 91.5% | 96.4% | 107% | > 10 µM | > 10 µM | > 10 µM | > 10 µM | > 10 µM | 0 | 0 | 0 | 0 | 0
6 | CN(C)C/C=C/C(=O)Nc1cccc(C(=O)Nc2cccc(Nc3ncc(Cl)c(-c4c[nH]c5ccccc45)n3)c2)c1 [THZ2] | 97.8% | 99.9% | 98.4% | 80.9% | 25.6% | 103% | 104% | 83.1% | 33.5% | 42.9% | 114% | 89.4% | 44.7% | 3.5% | 2.7% | 97.8% | 102% | 96.6% | 10.2% | 8.3% | 104% | 103% | 103% | 95% | 6.5% | 1.53 µM | 0.154 µM | 0.0771 µM | 0.303 µM | 2.75 µM | 7.1 | 14.9 | 24.2 | 16.8 | 5.9
7 | C[C@@H]1CN(Cc2ccc(F)cc2)[C@@H](C)CN1C(=O)c1cc2c(C(=O)C(=O)N(C)C)cn(C)c2cc1Cl [talmapimod] | 103% | 99.2% | 90.4% | 86.4% | 91.8% | 106% | 101% | 99.8% | 92.9% | 100% | 112% | 108% | 100% | 104% | 104% | 106% | 101% | 103% | 96.9% | 90.6% | 96.1% | 103% | 93.5% | 84.6% | 85% | > 10 µM | > 10 µM | > 10 µM | > 10 µM | > 10 µM | 1.5 | 0 | 0 | 0 | 2.1
8 | CC(C)N(CCCNC(=O)Nc1ccc(C(C)(C)C)cc1)C[C@H]1O[C@@H](n2ccc3c(N)ncnc32)[C@H](O)[C@@H]1O | 99.7% | 97.2% | 95.2% | 86.5% | 103% | 96.3% | 106% | 92.4% | 102% | 108% | 104% | 105% | 107% | 91.5% | 111% | 94.1% | 100% | 92.9% | 102% | 101% | 94.3% | 97% | 97.4% | 99.9% | 99.5% | > 10 µM | > 10 µM | > 10 µM | > 10 µM | > 10 µM | 0 | 0 | 0 | 0 | 0
9 | CC(C)CC(N)=O [isovaleramide] | 106% | 92.6% | 99.1% | 99.4% | 101% | 113% | 103% | 97.1% | 105% | 95.4% | 103% | 99.4% | 101% | 95.5% | 101% | 102% | 92.8% | 99.3% | 89.1% | 96.7% | 102% | 101% | 102% | 97.9% | 93.1% | > 10 µM | > 10 µM | > 10 µM | > 10 µM | > 10 µM | 0 | 0 | 0 | 0 | 0
10 | N#Cc1cn([C@@H]2O[C@H](CO)[C@@H](O)[C@H]2O)c2ncnc(N)c12 [toyocamycin] | 94.4% | 35% | 42.8% | 34.9% | 38.6% | 93% | 73.8% | 27.8% | 14.5% | 9.8% | 89.1% | 50.3% | 8.3% | -0.4% | 0.1% | 94.5% | 56.7% | 9.5% | 2.5% | 1% | 88.1% | 84.4% | 2.2% | 2.8% | 1.8% | 0.0025 µM | 0.0244 µM | 0.0098 µM | 0.0125 µM | 0.0194 µM | 29.7 | 27.7 | 35.6 | 34.2 | 32.6
11 | O=C(Nc1ccc(C(F)(F)F)cn1)N1CCN(c2ncccc2C(F)(F)F)CC1 | 97.9% | 99.3% | 97% | 96% | 92.1% | 99.3% | 104% | 93% | 100% | 92.8% | 108% | 91.7% | 105% | 98.4% | 101% | 94.1% | 98.5% | 102% | 99.4% | 100% | 102% | 93.9% | 94.9% | 101% | 103% | > 10 µM | > 10 µM | > 10 µM | > 10 µM | > 10 µM | 0 | 0 | 0 | 0 | 0
